Columns and labels:
[1] = tested on: velvetleaf; test: Test A pre-/postemergence herbicide test; assay type: in vivo, Abutilon theophrasti
Summary of the method: (§1)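 Visual injury rating on a 0–100 scale (0 no effect, 100 complete control) versus untreated controls, about ten days after treatment in greenhouse. Pre: directed soil spray onto seeded sandy loam. Post: spray to runoff on plants 2–10 cm tall at one- to two-leaf stage.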

[2] = tested on: rice; test: Test B pre-/postemergence herbicide test; assay type: in vivo, Oryza sativa; details: 0 = no effect, 100 = complete control, preemergence
Summary of the method: (§2)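 Formulation: non-phytotoxic solvent mix with surfactant. Timing: preemergence on seed and postemergence on 2–18 cm plants, applied concurrently. Readout after 13–15 d greenhouse: visual 0–100 control rating against controls.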

[3] = tested on: small flower umbrella sedge; test: Test B flooded paddy test; assay type: in vivo, Cyperus difformis; details: 1000 g ai/ha, scale 0 to 100 (0 no effect, 100 complete control)
Summary of the method: (§3)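 Formulated test chemicals went onto postemergence plants measuring 2 to 18 cm, at one to four leaves. For the paddy assay, species had reached two leaves. Scoring took place 13–15 days later by eye, relative to untreated plants, using 0 for no effect up to 100 for full control.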

[4] = tested on: wild oat; test: Test B postemergence herbicide test; assay type: in vivo, Avena fatua; details: postemergence
Summary of the method: as §3

[5] = tested on: barnyardgrass; test: Test B flooded paddy test; assay type: in vivo, Echinochloa crus-galli; details: 1000 g ai/ha, scale 0 to 100 (0 no effect, 100 complete control)
Summary of the method: as §3

[6] = tested on: barnyardgrass; test: Test A pre-/postemergence herbicide test; assay type: in vivo, Echinochloa crus-galli
Summary of the method: as §1

[7] = tested on: morningglory; test: Test A pre-/postemergence herbicide test; assay type: in vivo, Ipomoea spp.
Summary of the method: as §1

[8] = tested on: ducksalad; test: Test B flooded paddy test; assay type: in vivo, Heteranthera limosa; details: 1000 g ai/ha, scale 0 to 100 (0 no effect, 100 complete control)
Summary of the method: as §3

[9] = tested on: wheat; test: Test B postemergence herbicide test; assay type: in vivo, Triticum aestivum; design: key to Wheat plant response rating: 0 = no effect, 100 = complete control; details: postemergence
Summary of the method: as §3

[10] = tested on: Surinam grass; test: Test B pre-/postemergence herbicide test; assay type: in vivo, Urochloa decumbens; details: for Surinam Grass plant response rating: postemergence
Summary of the method: as §2

[11] = tested on: lambsquarters; test: Test B pre-/postemergence herbicide test; assay type: in vivo, Chenopodium album; details: for Lambsquarters plant response rating: postemergence
Summary of the method: as §2

[12] = tested on: corn; test: Test B pre-/postemergence herbicide test; assay type: in vivo, Zea mays; details: for Corn plant response rating: postemergence
Summary of the method: as §2

[13] = tested on: rice; test: Test B flooded paddy test; assay type: in vivo, Oryza sativa; details: 1000 g ai/ha, scale 0 to 100 (0 no effect, 100 complete control)
Summary of the method: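 Scale 0–100: zero equals no visible effect, 100 complete control, judged by eye relative to controls. Timing: 13 to 15 days in greenhouse post-treatment. Growth stage at spraying: two leaves (paddy) or one to four leaves, 2–18 cm (postemergence).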

[14] = tested on: large crabgrass; test: Test B pre-/postemergence herbicide test; assay type: in vivo, Digitaria sanguinalis; details: for Crabgrass, Large plant response rating: postemergence
Summary of the method: as §2

[15] = tested on: velvetleaf; test: Test B pre-/postemergence herbicide test; assay type: in vivo, Abutilon theophrasti; details: for Velvetleaf plant response rating: postemergence
Summary of the method: as §2

[16] = tested on: giant foxtail; test: Test A pre-/postemergence herbicide test; assay type: in vivo, Setaria faberi
Summary of the method: as §1

[17] = tested on: blackgrass; test: Test B postemergence herbicide test; assay type: in vivo, Alopecurus myosuroides; details: postemergence
Summary of the method: as §3

[18] = tested on: morningglory; test: Test B pre-/postemergence herbicide test; assay type: in vivo, Ipomoea coccinea; details: for Morningglory plant response rating: postemergence
Summary of the method: (§4)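 Plants compared with untreated controls 13–15 days post-treatment and given a visual 0–100 injury score. Applications: preemergence to seeds; postemergence at 1- to 4-leaf (2–18 cm); paddy species flooded, 2-leaf stage. Vehicle non-phytotoxic, surfactant included.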

[19] = tested on: cocklebur; test: Test B pre-/postemergence herbicide test; assay type: in vivo, Xanthium strumarium; details: for Cocklebur plant response rating: postemergence
Summary of the method: as §4

[20] = tested on: large crabgrass; test: Test A pre-/postemergence herbicide test; assay type: in vivo, Digitaria sanguinalis
Summary of the method: as §1

[21] = tested on: giant foxtail; test: Test B pre-/postemergence herbicide test; assay type: in vivo, Setaria faberi; details: for Foxtail, Giant plant response rating: postemergence
Summary of the method: as §2

[22] = tested on: pigweed; test: Test B pre-/postemergence herbicide test; assay type: in vivo, Amaranthus retroflexus; details: for Pigweed plant response rating: postemergence
Summary of the method: as §2

[23] = tested on: redroot pigweed; test: Test A pre-/postemergence herbicide test; assay type: in vivo, Amaranthus retroflexus
Summary of the method: as §1

[24] = tested on: barnyardgrass; test: Test B pre-/postemergence herbicide test; assay type: in vivo, Echinochloa crus-galli; details: for Barnyardgrass plant response rating: postemergence
Summary of the method: as §4

[25] = Postemergence, 500 g ai/ha, 0 to 100 scale, 0 no effect, 100 complete control
[26] = Postemergence, 2000 g ai/ha, 0 to 100 scale, 0 no effect, 100 complete control
[27] = Preemergence, 2000 g ai/ha, visual rating, 0 to 100 scale (0 no effect, 100 complete control)
[28] = preemergence, 500 g ai/ha, visual injury, 0 to 100 scale (0 no effect, 100 complete control)
[29] = 125 g ai/ha, visual rating, scale 0 (no effect) to 100 (complete control)
[30] = 500 g ai/ha, scale 0 to 100, 0 is no effect, 100 is complete control
[31] = 125 g ai/ha, 0 = no effect, 100 = complete control, preemergence
[32] = 500 g ai/ha, visual rating, 0 = no effect, 100 = complete control, preemergence

## C#CCNC(=O)c1ccc(F)c(NC(=O)c2cc(C(C)(C)C)nn2CC)n1 [Compound 279]
[1]; [25]
  Velvetleaf plant response rating: 20
[1]; [26]
  Plant response rating, Velvetleaf: 20
[1]; [27]
  Velvetleaf plant response rating: 30
[1]; [28]
  Velvetleaf plant response rating: 10
[2]; 125 g ai/ha
  Rice plant response rating (0 to 100 scale): 20
[2]; 500 g ai/ha, visual rating
  Plant response rating, Rice: 50
[3]
  Sedge, Umbrella plant response rating: 60
[4]; [29]
  Oat, Wild plant response rating: 20
[4]; [30]
  Oat, Wild plant response rating: 20
[5]
  Barnyardgrass plant response rating: 10
[6]; [25]
  Barnyardgrass plant response rating: 20
[6]; [26]
  Plant response rating, Barnyardgrass: 40
[6]; [27]
  Barnyardgrass plant response rating: 55
[6]; [28]
  Barnyardgrass plant response rating: 5
[7]; [25]
  Morningglory plant response rating: 5
[7]; [26]
  Plant response rating, Morningglory: 5
[7]; [27]
  Morningglory plant response rating: 20
[7]; [28]
  Morningglory plant response rating: 10
[8]
  Ducksalad plant response rating: 60
[9]; [29]
  Wheat plant response rating: 30
[9]; [30]
  Wheat plant response rating: 30
[10]; [31]
  Surinam Grass plant response rating (0 to 100 scale): 0
[10]; [32]
  Plant response rating, Surinam Grass: 40
[10]; [29]
  Surinam Grass plant response rating: 10
[10]; [30]
  Surinam Grass plant response rating: 10
[11]; [31]
  Lambsquarters plant response rating (0 to 100 scale): 100
[11]; [32]
  Plant response rating, Lambsquarters: 100
[11]; [29]
  Lambsquarters plant response rating: 10
[11]; [30]
  Lambsquarters plant response rating: 20
[12]; [31]
  Corn plant response rating (0 to 100 scale): 0
[12]; [32]
  Plant response rating, Corn: 0
[12]; [29]
  Corn plant response rating: 10
[12]; [30]
  Corn plant response rating: 10
[13]
  Rice plant response rating: 40
[14]; [31]
  Crabgrass, Large plant response rating (0 to 100 scale): 10
[14]; [32]
  Plant response rating, Crabgrass, Large: 80
[14]; [29]
  Crabgrass, Large plant response rating: 0
[14]; [30]
  Crabgrass, Large plant response rating: 10
[15]; [31]
  Velvetleaf plant response rating (0 to 100 scale): 0
[15]; [32]
  Plant response rating, Velvetleaf: 20
[15]; [29]
  Velvetleaf plant response rating: 10
[15]; [30]
  Velvetleaf plant response rating: 10
[16]; [25]
  Foxtail, Giant plant response rating: 10
[16]; [26]
  Plant response rating, Foxtail, Giant: 20
[16]; [27]
  Foxtail, Giant plant response rating: 60
[16]; [28]
  Foxtail, Giant plant response rating: 25
[17]; [29]
  Blackgrass plant response rating: 10
[17]; [30]
  Blackgrass plant response rating: 30
[18]; [31]
  Morningglory plant response rating (0 to 100 scale): 0
[18]; [32]
  Plant response rating, Morningglory: 0
[18]; [29]
  Morningglory plant response rating: 0
[18]; [30]
  Morningglory plant response rating: 20
[19]; [31]
  Cocklebur plant response rating (0 to 100 scale): 0
[19]; [32]
  Plant response rating, Cocklebur: 0
[19]; [29]
  Cocklebur plant response rating: 0
[19]; [30]
  Cocklebur plant response rating: 20
[20]; [25]
  Crabgrass, Large plant response rating: 10
[20]; [26]
  Plant response rating, Crabgrass, Large: 20
[20]; [27]
  Crabgrass, Large plant response rating: 70
[20]; [28]
  Crabgrass, Large plant response rating: 70
[21]; [31]
  Foxtail, Giant plant response rating (0 to 100 scale): 10
[21]; [32]
  Plant response rating, Foxtail, Giant: 30
[21]; [29]
  Foxtail, Giant plant response rating: 0
[21]; [30]
  Foxtail, Giant plant response rating: 0
[22]; [31]
  Pigweed plant response rating (0 to 100 scale): 90
[22]; [32]
  Plant response rating, Pigweed: 100
[22]; [29]
  Pigweed plant response rating: 30
[22]; [30]
  Pigweed plant response rating: 30
[23]; [25]
  Pigweed plant response rating: 70
[23]; [26]
  Plant response rating, Pigweed: 60
[23]; [27]
  Pigweed plant response rating: 100
[23]; [28]
  Pigweed plant response rating: 95
[24]; [31]
  Barnyardgrass plant response rating (0 to 100 scale): 20
[24]; [32]
  Plant response rating, Barnyardgrass: 40
[24]; [29]
  Barnyardgrass plant response rating: 0
[24]; [30]
  Barnyardgrass plant response rating: 10
